Test results reported in patent US4182712A, “5-Substituted thiadiazole ureas” (Mobil Oil Corporation, priority 1977, dated 1980).

How the values were obtained:
crops and weed species = test: Pre- and post-emergence herbicide tests, overall (Tables III-VI); format: in vivo; details: in words
Description: (§1) All crop and weed species were planted individually in 3" plastic pots containing potting soil. Four seeds each of corn, cotton, and snapbeans were seeded to a depth equal to the diameter of the seed. All other species were surface seeded and sprinkled with screened soil in an amount sufficient to cover the seed. Immediately after planting, all pots were watered by sub-irrigation in greenhouse trays. Pots for the pre-emergence phase were seeded one day before treatment.
(§2) Planting dates for the post-emergence phase were varied so that all seedlings would reach the desired stage of development simultaneously. The proper stage of seedling development for treatment in the post-emergence phase is as follows:
(§3) Compounds were tested at rates of application equivalent to 8 lbs. of actual compound per acre in a spray volume of 38 gallons per acre. Spray hood constants required to deliver the above volume are as follows:
Two weeks after treatment, pre- and post-emergence injury or control was visually rated, and the results were as shown in the following tables. Pre-emergence data are provided in TABLE III and post-emergence data are provided in TABLE IV, for compounds having the formula illustrated in TABLE I. Correspondingly, pre-emergence and post-emergence data, respectively, are set forth in TABLES V AND VI, for compounds having the formula illustrated in TABLE II.

Amaranth pigweed (PW) = test: Post-emergence herbicide test, amaranth pigweed; format: in vivo, Amaranthus retroflexus; details: 336 h, 8 lb/acre, two weeks after treatment
Description: as §1, §2
Pigweed and turnips: 1 or 2 true leaves above visible cotyledons.
as §3
(§4) Formulations for spray applications were prepared in 50 ml volumes with the following three components:
(§5) Formulations for the 4 lbs/acre rate were prepared by adjusting the amount of active ingredient accordingly.
(§6) Spray applications were made in a hood containing a removable belt and fixed spray nozzle. […]

Corn (CN) = test: Post-emergence herbicide test, corn; format: in vivo; details: Zea mays, 336 h, 2 lb/acre, two weeks after treatment
Description: as §1, §2, §3, §4, §5
Spray applications were made in a hood containing a removable belt and fixed spray nozzle. For passage through the spray hood, one pot of each specie (pre-emergence phase) was placed on the rear half of the flat. Treatments were removed to the greenhouse after spraying. […]

Cotton (CT) = test: Post-emergence herbicide test, cotton; format: in vivo, Gossypium hirsutum var. DPL smooth leaf; details: Gossypium hirsutum, 336 h, 2 lb/acre, two weeks after treatment
Description: Cotton (CT)--Gossypium hirsutum var. DPL smooth leaf
as §1, §2
Cotton: first true leaf 1" in length; expanded cotyledons.
as §3, §4, §5, §6

SMILES: CNC(=O)Nc1nnc(C(F)(F)F)s1 [Example 1, 1-Methyl-3-[5-Trifluoromethyl-2-(1,3,4-Thiadiazolyl)] Urea]
- herbicidal effectiveness on a variety of crops and weed species (crops and weed species): extremely effective

SMILES: CN(C)C(=O)Nc1nnc(C(F)(F)F)s1 [Example 2, 1,1-Dimethyl-3-[5-Trifluoromethyl-2-(1,3,4-Thiadiazolyl)] Urea]
- herbicidal effectiveness on a variety of crops and weed species (crops and weed species): extremely effective

SMILES: CSc1nnc(N(C)C(=O)N(C)C)s1 [Example 5, 1,1,3-trimethyl-3-[5-methylthio-2-(1,3,4-thiadiazolyl)] urea]
- herbicidal effectiveness on a variety of crops and weed species (crops and weed species): extremely effective

SMILES: CCNC(=O)Nc1nnc(C(F)(F)F)s1 [Example 9]
- selectivity toward a certain crop or weed species (crops and weed species): more selective when applied to a certain crop or weed species

SMILES: C=CCNC(=O)Nc1nnc(C(F)(F)F)s1 [Example 12]
- selectivity post-emergence versus pre-emergence (crops and weed species): control post-emergence growth, while have little effect in regard to pre-emergence

SMILES: O=C(Nc1ccc(Cl)cc1)Nc1nnc(C(F)(F)F)s1 [Example 15]
- selectivity toward a certain crop or weed species (crops and weed species): more selective when applied to a certain crop or weed species

SMILES: O=C(Nc1ccc(Cl)c(Cl)c1)Nc1nnc(C(F)(F)F)s1 [Example 16]
- pest or weed control at 8966.8 g/ha (Amaranth pigweed (PW)): 100%
- selectivity toward a certain crop or weed species (crops and weed species): more selective when applied to a certain crop or weed species

SMILES: Cc1nnc(NC(=O)N(C)C)s1 [Example 19]
- selectivity post-emergence versus pre-emergence (crops and weed species): The converse of this relationship

SMILES: CCc1nnc(NC(=O)N(C)C)s1 [Example 20]
- selectivity toward a certain crop or weed species (crops and weed species): more selective when applied to a certain crop or weed species

SMILES: CNC(=O)Nc1nnc(CC(C)C)s1 [Example 21]
- selectivity toward a certain crop or weed species (crops and weed species): more selective when applied to a certain crop or weed species

SMILES: CNC(=O)Nc1nnc(COC)s1 [Example 25]
- selectivity toward a certain crop or weed species (crops and weed species): more selective when applied to a certain crop or weed species

SMILES: CNC(=O)Nc1nnc(SC)s1 [Example 26]
- herbicidal effectiveness on a variety of crops and weed species (crops and weed species): extremely effective

SMILES: CNC(=O)Nc1nncs1 [Example 35]
- selectivity toward a certain crop or weed species (crops and weed species): more selective when applied to a certain crop or weed species

SMILES: CNC(=O)N(C)c1nnc(C(F)(F)F)s1 [Example 36]
- herbicidal effectiveness on a variety of crops and weed species (crops and weed species): extremely effective

SMILES: CCN(C(=O)NC)c1nnc(C(F)(F)F)s1 [Example 37]
- herbicidal effectiveness on a variety of crops and weed species (crops and weed species): extremely effective

SMILES: CNC(=O)Nc1nnc(SCCCCl)s1 [Example 61]
- pest or weed control at 2241.7 g/ha (Corn (CN)): 100%
- pest or weed control at 2241.7 g/ha (Cotton (CT)): 40%
